Reference: patent US9556201B2, “Bicyclic pyridines and analogs as sirtuin modulators” (GLAXOSMITHKLINE LLC, priority 2009, dated 2017)

Columns and labels:
SIRT1 = biological target: T1, SIRT1 (Homo sapiens, UniProt Q96EB6); assay: Mass spectrometry based assay to identify modulators of SIRT1 activity (deacetylation of p53-based acetylated peptide substrate); assay type: biochemical; conditions: for Emax: 25 min, read-out: % FOLD ACT. (percent maximum fold activation); for Emax / EC1.5: SIRT1 activation
T1 sequence (Q96EB6 1-747): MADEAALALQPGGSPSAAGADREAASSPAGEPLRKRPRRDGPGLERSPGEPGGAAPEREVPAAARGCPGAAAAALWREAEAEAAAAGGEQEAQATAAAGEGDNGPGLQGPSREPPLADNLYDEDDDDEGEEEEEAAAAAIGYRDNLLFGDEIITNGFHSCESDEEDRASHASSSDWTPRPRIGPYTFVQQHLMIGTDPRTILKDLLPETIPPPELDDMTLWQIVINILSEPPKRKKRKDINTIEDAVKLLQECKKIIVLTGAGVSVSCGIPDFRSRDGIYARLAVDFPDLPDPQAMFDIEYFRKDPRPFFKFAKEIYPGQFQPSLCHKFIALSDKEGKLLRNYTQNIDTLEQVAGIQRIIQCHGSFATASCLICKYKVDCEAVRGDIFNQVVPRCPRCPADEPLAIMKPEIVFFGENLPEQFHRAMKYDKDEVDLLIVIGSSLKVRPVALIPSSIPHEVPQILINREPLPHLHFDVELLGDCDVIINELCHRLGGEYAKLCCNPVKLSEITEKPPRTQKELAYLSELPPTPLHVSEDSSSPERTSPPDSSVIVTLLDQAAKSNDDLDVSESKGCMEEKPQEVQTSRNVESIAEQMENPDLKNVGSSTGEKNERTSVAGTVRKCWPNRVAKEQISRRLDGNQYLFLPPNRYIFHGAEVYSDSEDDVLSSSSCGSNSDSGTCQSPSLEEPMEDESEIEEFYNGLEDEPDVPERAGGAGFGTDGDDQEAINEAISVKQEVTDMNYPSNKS
Procedure, shortened: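 Deacetylation of a modified p53 acetyl-lysine peptide ([…], 5TMR-labelled, Nle for Met) by 10 nM N-His SIRT1 with 120 μM βNAD+, pH 8, 25 min, 25 °C. Substrate and product masses measured by MS after formic acid quench; nicotinamide defines maximal inhibition.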

TNF = TNF IC50 (column of Table 1; method not shown); assay type: cell-based

In the case of `O=C(Nc1ccncc1)N1CCOc2ccc(-c3cccc(C(F)(F)F)c3)nc21` [Compound 501], the Emax (SIRT1) is reported as over 200%, the EC1.5 (SIRT1) is reported as “A (EC1.5<1.0 μM)” and the IC50 (TNF) is reported as under 20 µM.

`O=C(Nc1ccccn1)N1CCOc2ccc(-c3cccc(C(F)(F)F)c3)nc21` [Compound 502] was tested, and the Emax (SIRT1) was over 200%, the EC1.5 (SIRT1) was “A (EC1.5<1.0 μM)” and the IC50 (TNF) was at least 20 µM.

For `O=C(Nc1ccncn1)N1CCOc2ccc(-c3cccc(C(F)(F)F)c3)nc21` [Compound 503], the Emax (SIRT1) was over 200%, the EC1.5 (SIRT1) was “A (EC1.5<1.0 μM)” and the IC50 (TNF) was at least 20 µM.

In the case of `O=C(Nc1cccc(N2CCOCC2)n1)N1CCOc2ccc(-c3cccc(C(F)(F)F)c3)nc21` [Compound 506, N-(6-morpholinopyridin-2-yl)-6-(3-(trifluoromethyl)phenyl)-2H-pyrido[3,2-b][1,4]oxazine-4(3H)-carboxamide], the Emax (SIRT1) is reported as over 200%, the EC1.5 (SIRT1) is reported as “A (EC1.5<1.0 μM)” and the IC50 (TNF) is reported as at least 20 µM.

In the case of `O=C(Nc1ccnc(N2CCCC2)c1)N1CCOc2ccc(-c3cccc(C(F)(F)F)c3)nc21` [Compound 508], the Emax (SIRT1) is reported as over 200%, the EC1.5 (SIRT1) is reported as “A (EC1.5<1.0 μM)” and the IC50 (TNF) is reported as at least 20 µM.

`O=C(Nc1cccc(CN2CCOCC2)n1)N1CCOc2ccc(-c3cccc(C(F)(F)F)c3)nc21` [Compound 510] was tested, and the Emax (SIRT1) was over 200%, the EC1.5 (SIRT1) was “A (EC1.5<1.0 μM)” and the IC50 (TNF) was at least 20 µM.

For `Cc1cc(C)nc(NC(=O)N2CCOc3ccc(-c4cccc(C(F)(F)F)c4)nc32)c1` [Compound 511], the Emax (SIRT1) was over 200%, the EC1.5 (SIRT1) was “A (EC1.5<1.0 μM)” and the IC50 (TNF) was at least 20 µM.

`O=C(Nc1ccnc(N2CCC2)c1)N1CCOc2ccc(-c3cccc(C(F)(F)F)c3)nc21` [Compound 513] was tested, and the Emax (SIRT1) was over 200%, the EC1.5 (SIRT1) was “A (EC1.5<1.0 μM)” and the IC50 (TNF) was at least 20 µM.

In the case of `O=C(Nc1ccnc(N2CCC2)c1)N1CCOc2ccc(-c3cccc(F)c3)nc21` [Compound 519], the Emax (SIRT1) is reported as over 200%, the EC1.5 (SIRT1) is reported as “A (EC1.5<1.0 μM)” and the IC50 (TNF) is reported as under 20 µM.

With `CN1CCN(C(=O)Nc2ccncc2)c2nc(-c3cccc(C(F)(F)F)c3)ccc21` [Compound 531] the Emax (SIRT1) was over 200%, the EC1.5 (SIRT1) was “A (EC1.5<1.0 μM)” and the IC50 (TNF) was under 20 µM.

For `Cc1cc(NC(=O)N2CCN(C)c3ccc(-c4cccc(C(F)(F)F)c4)nc32)cc(C)n1` [Compound 532], the Emax (SIRT1) was at most 200%, the EC1.5 (SIRT1) was “B (EC1.5 1-25 μM)” and the IC50 (TNF) was at least 20 µM.

`Cc1csc(NC(=O)N2CCN(C)c3ccc(-c4cccc(C(F)(F)F)c4)nc32)n1` [Compound 533] was tested, and the Emax (SIRT1) was over 200%, the EC1.5 (SIRT1) was “A (EC1.5<1.0 μM)” and the IC50 (TNF) was at least 20 µM.

For `Cc1cc(C)nc(NC(=O)N2CCN(C)c3ccc(-c4cccc(C(F)(F)F)c4)nc32)c1` [Compound 534], the Emax (SIRT1) was at most 200%, the EC1.5 (SIRT1) was “A (EC1.5<1.0 μM)” and the IC50 (TNF) was at least 20 µM.

With `CN1CCN(C(=O)Nc2ccncn2)c2nc(-c3cccc(C(F)(F)F)c3)ccc21` [Compound 535] the Emax (SIRT1) was over 200%, the EC1.5 (SIRT1) was “A (EC1.5<1.0 μM)” and the IC50 (TNF) was at least 20 µM.

With `CN1CCN(C(=O)Nc2cccnn2)c2nc(-c3cccc(C(F)(F)F)c3)ccc21` [Compound 537] the Emax (SIRT1) was over 200%, the EC1.5 (SIRT1) was “A (EC1.5<1.0 μM)” and the IC50 (TNF) was at least 20 µM.

For `CN1CCN(C(=O)Nc2ccnc(N3CCC3)c2)c2nc(-c3cccc(C(F)(F)F)c3)ccc21` [Compound 538], the Emax (SIRT1) was over 200%, the EC1.5 (SIRT1) was “A (EC1.5<1.0 μM)” and the IC50 (TNF) was under 20 µM.

`CN1CCN(C(=O)Nc2cccc(CN3CCOCC3)n2)c2nc(-c3cccc(C(F)(F)F)c3)ccc21` [Compound 539] was tested, and the Emax (SIRT1) was over 200%, the EC1.5 (SIRT1) was “A (EC1.5<1.0 μM)” and the IC50 (TNF) was under 20 µM.

For `Cc1cc(NC(=O)N2CCOc3ccc(-c4cccc(C(F)(F)F)c4)nc32)ccn1` [Compound 548], the Emax (SIRT1) was over 200%, the EC1.5 (SIRT1) was “A (EC1.5<1.0 μM)” and the IC50 (TNF) was at least 20 µM.

For `O=C(Nc1ccncc1F)N1CCOc2ccc(-c3cccc(C(F)(F)F)c3)nc21` [Compound 549], the Emax (SIRT1) was over 200%, the EC1.5 (SIRT1) was “A (EC1.5<1.0 μM)” and the IC50 (TNF) was at least 20 µM.

In the case of `Cc1cncc(NC(=O)N2CCOc3ccc(-c4cccc(C(F)(F)F)c4)nc32)c1` [Compound 551], the Emax (SIRT1) is reported as over 200%, the EC1.5 (SIRT1) is reported as “A (EC1.5<1.0 μM)” and the IC50 (TNF) is reported as at least 20 µM.

For `Cc1cc(NC(=O)N2CCOc3ccc(-c4cccc(C(F)(F)F)c4)nc32)cc(C)n1` [Compound 556], the Emax (SIRT1) was over 200%, the EC1.5 (SIRT1) was “A (EC1.5<1.0 μM)” and the IC50 (TNF) was under 20 µM.

For `O=C(Nc1ccncc1)N1CCOc2ccc(-c3cccc(N4CCOCC4)c3)nc21` [Compound 557], the Emax (SIRT1) was over 200%, the EC1.5 (SIRT1) was “A (EC1.5<1.0 μM)” and the IC50 (TNF) was at least 20 µM.

For `O=C(Nc1ccncc1)N1CCOc2ccc(-c3cccc(N4CCCC4)c3)nc21` [Compound 559], the Emax (SIRT1) was over 200%, the EC1.5 (SIRT1) was “A (EC1.5<1.0 μM)” and the IC50 (TNF) was under 20 µM.

With `CC1(C)CN(C(=O)Nc2ccncc2)c2nc(-c3cccc(C(F)(F)F)c3)ccc2O1` [Compound 560, 2,2-dimethyl-N-(pyridin-4-yl)-6-(3-(trifluoromethyl)phenyl)-2H-pyrido[3,2-b][1,4]oxazine-4(3H)-carboxamide] the Emax (SIRT1) was over 200%, the EC1.5 (SIRT1) was “A (EC1.5<1.0 μM)” and the IC50 (TNF) was at least 20 µM.

`O=C(Nc1ccc(F)cn1)N1CCOc2ccc(-c3cccc(C(F)(F)F)c3)nc21` [Compound 566] was tested, and the Emax (SIRT1) was over 200%, the EC1.5 (SIRT1) was “A (EC1.5<1.0 μM)” and the IC50 (TNF) was at least 20 µM.

In the case of `O=C(Nc1cccc(OC[C@H](O)CO)n1)N1CCOc2ccc(-c3cccc(C(F)(F)F)c3)nc21` [Compound 570, (R)—N-(6-(2,3-dihydroxypropoxy)pyridin-2-yl)-6-(3-(trifluoromethyl)phenyl)-2H-pyrido[3,2-b][1,4]oxazine-4(3H)-carboxamide], the Emax (SIRT1) is reported as over 200%, the EC1.5 (SIRT1) is reported as “A (EC1.5<1.0 μM)” and the IC50 (TNF) is reported as under 20 µM.

`O=C(Nc1cccc(OC[C@@H](O)CO)n1)N1CCOc2ccc(-c3cccc(C(F)(F)F)c3)nc21` [Compound 571] was tested, and the Emax (SIRT1) was over 200%, the EC1.5 (SIRT1) was “A (EC1.5<1.0 μM)” and the IC50 (TNF) was under 20 µM.

With `Cc1cc(NC(=O)N2CCOc3ccc(-c4ccc5c(c4)CCO5)nc32)cc(C)n1` [Compound 574] the Emax (SIRT1) was over 200%, the EC1.5 (SIRT1) was “A (EC1.5<1.0 μM)” and the IC50 (TNF) was at least 20 µM.

`Cc1csc(NC(=O)N2CCCOc3ccc(-c4cccc(C(F)(F)F)c4)nc32)n1` [Compound 578] was tested, and the Emax (SIRT1) was over 200%, the EC1.5 (SIRT1) was “A (EC1.5<1.0 μM)” and the IC50 (TNF) was at least 20 µM.

`Cc1cncc(NC(=O)N2CCCc3ccc(-c4cccc(C(F)(F)F)c4)nc32)c1` [Compound 585, N-(5-methylpyridin-3-yl)-7-(3-(trifluoromethyl)phenyl)-3,4-dihydro-1,8-naphthyridine-1(2H)-carboxamide] was tested, and the Emax (SIRT1) was over 200%, the EC1.5 (SIRT1) was “A (EC1.5<1.0 μM)” and the IC50 (TNF) was under 20 µM.

In the case of `O=C(Nc1cncc(F)c1)N1CCCc2ccc(-c3cccc(C(F)(F)F)c3)nc21` [Compound 586], the Emax (SIRT1) is reported as over 200%, the EC1.5 (SIRT1) is reported as “A (EC1.5<1.0 μM)” and the IC50 (TNF) is reported as under 20 µM.

For `Cc1cc(NC(=O)N2CCCc3ccc(-c4cccc(C(F)(F)F)c4)nc32)cc(C)n1` [Compound 587], the Emax (SIRT1) was over 200%, the EC1.5 (SIRT1) was “A (EC1.5<1.0 μM)” and the IC50 (TNF) was under 20 µM.

`Cc1csc(NC(=O)N2CCCc3ccc(-c4cccc(C(F)(F)F)c4)nc32)n1` [Compound 588] was tested, and the Emax (SIRT1) was over 200%, the EC1.5 (SIRT1) was “A (EC1.5<1.0 μM)” and the IC50 (TNF) was at least 20 µM.

With `O=C(Nc1ccnc(N2CCC2)c1)N1CCCc2ccc(-c3cccc(C(F)(F)F)c3)nc21` [Compound 589] the Emax (SIRT1) was over 200%, the EC1.5 (SIRT1) was “A (EC1.5<1.0 μM)” and the IC50 (TNF) was under 20 µM.

Compound `O=C1NCc2cccc(NC(=O)N3CCCOc4ccc(-c5cccc(Cl)c5)nc43)c21` [Compound 885] has an EC1.5 (concentration giving 1.5-fold activation) (SIRT1) of 1 to 25 µM and an Emax (SIRT1) of at most 200%.
